How the values were obtained:
[1] = test system: NIH3T3, HepG2 and HeLa cells; test: In vitro transfection in the absence and in the presence of serum proteins; type: cell-based; settings: with versus without serum proteins; FIG. 3
Method: FIG. 3: Measurement of the in vitro efficiency of transfection of compound 1 according to the invention into NIH3T3, HepG2 and HeLa cells, in the absence (white bars) and in the presence (black bars) of serum proteins and in comparison with its amine-containing homologue (RPR120535).
(§1) The measurements were carried out at different charge ratios which are plotted on the x-axis. The expression of luciferase is plotted on the y-axis and is expressed in RLU (Relative Light Unit) per well.
(§2) The nucleic acid used is the plasmid pXL2774 (WO 97/10343) comprising the gene encoding luciferase under the control of the human cytomegalovirus (CMV) promoter.
The nucleic acid solutions are diluted to 20 μg/ml in physiological saline (0.15 M sodium chloride NaCl). […]
The cells are washed with twice 500 μl of medium free of serum proteins and grown again either in serum-free medium (transfection in the absence of serum), or in complete medium (transfection in the presence of serum). […] When the cells are transfected in the absence of serum, the growth medium is supplemented 2 hours after transfection with the appropriate quantity of serum.
The transfection efficiency is evaluated 48 hours after the transfection by measuring the expression of luciferase according to the recommendations given for the use of the Promega kit [Luciferase Assay System]. […]

HepG2 cells [2] = test: In vitro transfection of luciferase plasmid pXL2774; type: cell-based
Method: (§3) FIG. 2: Measurement of the in vitro efficiency of transfection of compound 1 according to the invention into NIH3T3, HepG2 and HeLa cells, in the absence of serum proteins and in comparison with its amine-containing homologue (RPR120535).
as §1, §2
(§4) The nucleic acid solutions are diluted to 20 μg/ml in physiological saline (0.15 M sodium chloride NaCl).
(§5) The products described in the invention are dissolved in water at a concentration varying from 60 to 240 μM and mixed volume for volume with the DNA solution; the final saline concentration is 75 mM.
(§6) The cells are cultured under appropriate conditions in 24-well microplates (2 cm^2 /well) and are transfected while they are in the exponential growth phase and at 50-70% confluence.
(§7) The cells are washed with twice 500 μl of medium free of serum proteins and grown again either in serum-free medium (transfection in the absence of serum), or in complete medium (transfection in the presence of serum). 50 μl of transfectant mixture [i.e. 0.5 μg DNA/well] are added to the cells [3 wells/condition DNA vector]. When the cells are transfected in the absence of serum, the growth medium is supplemented 2 hours after transfection with the appropriate quantity of serum.
(§8) The transfection efficiency is evaluated 48 hours after the transfection by measuring the expression of luciferase according to the recommendations given for the use of the Promega kit [Luciferase Assay System]. The toxicity of the transfectant mixtures is estimated by a measurement of the protein concentrations in the cell lysates.
(§9) Compound 1 was used in comparison with the cationic lipid RPR120535 (TFA salt) [described in patent application WO 97/18185 incorporated into the present application by way of reference] as DNA vector to transfect three different cell lines: NIH3T3 cells, HepG2 cells and HeLa cells. […] The transfection efficiency for compound 1 and for the cationic lipid for comparison in the three cell types is represented in FIG. 2, for nmol of compound/μg of DNA ratios of between 3 and 12.

NIH3T3 cells [3] = test: as above; type: cell-based; settings: FIG. 2, absence of serum proteins, 48 hours
Method: as §3, §1, §2, §4, §5, §6, §7, §8, §9

HeLa cells [4] = test: as above; type: cell-based
Method: as §3, §1, §2, §4, §5, §6, §7, §8, §9

HepG2 cells [5] = test: Toxicity of the transfectant mixtures (protein concentrations in the cell lysates); type: cell-based
Method: as §6, §7, §8, §9

NIH3T3 cells [6] = test: as above; type: cell-based
Method: as §6, §7, §8, §9

HeLa cells [7] = test: as above; type: cell-based
Method: as §6, §7, §8, §9

DNA = test: Physicochemical phase (A, B or C) of the nucleolipid complexes as a function of the charge ratio; settings: micellar form and in combination with a neutral colipid (DOPE and cholesterol)
Method: FIG. 8: Tables indicating the physicochemical phase (phase A, B or C) in which exist the nucleolipid complexes formed with compound 2 in comparison with its amine-containing analogue, as a function of the charge ratio.
The determination of the phases was carried out for compound 2 and for its amine-containing homologue in micellar form and in combination with a neutral colipid (DOPE and cholesterol).
The nucleic acid used is the plasmid pXL3031, as described in the preceding example.
The complexes are prepared at concentrations of 0.25 mg of DNA/ml with an appropriate quantity of lipid as defined in the present invention in the desired charge ratio. The complex is prepared in a medium containing 5% glucose and a 20 mM solution of sodium chloride. 50 μl of nucleolipid complex are then diluted 20-fold in 950 μl of solution containing 5% glucose and a 20 mM solution of sodium chloride.
The size of the complexes was determined by measuring the hydrodynamic diameter by dynamic light scattering with the aid of a Coulter N4+ apparatus.
The complexes formed are negatively charged overall, which makes the crossing of cell membranes difficult. It is thus preferable for the values not to be situated in this region in order to transfect the DNA.
Phase B for which the DNA is completely saturated with the cationic lipid and the complexes are neutral or slightly positive overall. The ionic repulsions being […], this phase is unstable. A phenomenon of "cross-linking" may occur, leading to precipitation of the complexes. The complexes in this state cannot therefore be used as injection.
Phase C for which the DNA is oversaturated with the lipid and the complexes are therefore positive overall. […] The complexes in phase C are therefore particularly suitable for use for the transfer of nucleic acids into cells.
The tables in FIGS. 8, 9, 10 and 11 compare the phases as a function of the charge ratios between the compounds of the invention and their amine-containing analogues, that is to say the cationic lipids whose amidine or guanidine function is replaced by an amino function. It is observed that phase B is shifted towards much lower charge ratios. Thus, the incorporation of amidine functions into the cationic head contributes to the increase in the affinity of the compounds for DNA. This constitutes an important property of the compounds of the invention because the complexes which they form with DNA may be used in phase C without as a result being at excessively high charge ratios, with the beneficial effects which result therefrom on toxicity.

[8] = FIG. 2, absence of serum proteins, 48 hours

Question: How did the “transfection levels with or without serum proteins” value [1] turn out when CCCCCCCCCCCCCCCCCCN(CCCCCCCCCCCCCCCCCC)C(=O)CNC(=O)CNCCCNCCCCNCCCN [RPR120535, reference compound] was run?
Answer: The value was “a strong inhibition is observed due to the presence of the serum proteins”.

Question: How did the “ratio of cationic lipid to DNA giving the maximum transfection efficiency” value (“ratio of cationic lipid” below) (HepG2 cells [2]; [8]) turn out when CCCCCCCCCCCCCCCCCCN(CCCCCCCCCCCCCCCCCC)C(=O)CNC(=O)CNCCCNCCCCNCCCNC(=N)N [compound 1, N-dioctadecylcarbamoylmethyl-2-{3-[4-(3-guanidinopropylamino)butylamino]propylamino}acetamide] was run?
Answer: The value was 9 nanomoles cationic lipid/μg of DNA.

Question: What about the “luciferase expression level relative to the product tested in comparison (RPR120535)” value (HepG2 cells [2]; absence of serum) of the same compound?
Answer: The value was 2 to 4 times higher.

Question: What about the “ratio of cationic lipid” value (NIH3T3 cells [3]) of the same compound?
Answer: Its value is 6 nanomoles cationic lipid/μg of DNA.

Question: What about the “ratio of cationic lipid” value (HeLa cells [4]; [8]) of the same compound?
Answer: Its value is 9 nanomoles cationic lipid/μg of DNA.

Question: And the “luciferase expression level relative to the product tested in comparison (RPR120535)” value (HeLa cells [4]; absence of serum)?
Answer: The value was 2 to 4 times higher.

Question: And the “transfection levels with or without serum proteins” value [1]?
Answer: Its value is “the transfection levels with or without serum proteins are the same”.

Question: What about the “toxicity of the transfectant mixture” value (HepG2 cells [5]) of the same compound?
Answer: Its value is “no significant toxicity was detected”.

Question: And the “toxicity of the transfectant mixture” value (NIH3T3 cells [6])?
Answer: Its value is “no significant toxicity was detected”.

Question: What about the “toxicity of the transfectant mixture” value (HeLa cells [7]) of the same compound?
Answer: Its value is “no significant toxicity was detected”.

Question: With CCCCCCCCCCCCCCCCCCN(CCCCCCCCCCCCCCCCCC)C(=O)CNCCN(CCNC(=N)N)CCNC(=N)N [compound 2, 2-{2-[bis(2-guanidinoethyl)amino]ethylamino}-N,N-dioctadecylacetamide] as the compound, how does the “shift of the unstable phase B in comparison with the amine-containing analogue” value (shortened to “shift … with the amine-containing analogue”) (DNA) read?
Answer: The value was “a shift is observed from the unstable phase B towards lower charge ratios”.

Question: With CCCCCCCCCCCCCCN(CCCCCCCCCCCCCC)C(=O)CNC(=O)CNCCCNCCCCNCCCNC(=N)N [compound 3, N-ditetradecylcarbamoylmethyl-2-{3-[4-(3-guanidinopropylamino)butylamino]propylamino}acetamide] as the compound, how does the “shift … with the amine-containing analogue” value (DNA) read?
Answer: The value was “a shift is observed from the unstable phase B towards lower charge ratios”.

Question: How did the “shift … with the amine-containing analogue” value (DNA) turn out when CCCCCCCCCCCCCCN(CCCCCCCCCCCCCC)C(=O)CNC(=O)CN(CCCCNCCCNC(=N)N)CCCNC(=N)N [compound 5, N-ditetradecylcarbamoylmethyl-2-{(3-guanidinopropyl)-[4-(3-guanidinopropylamino)butyl]amino}acetamide] was run?
Answer: The value was “a shift is observed from the unstable phase B towards lower charge ratios”.

Question: Which “shift … with the amine-containing analogue” value (DNA) does the source give for CCCCCCCCCCCCCCN(CCCCCCCCCCCCCC)C(=O)CNC(=O)CNCCCN(CCCCN(CCCNC(=N)N)CCCNC(=N)N)CCCNC(=N)N [compound 6, 2-{3-[{4-[bis(3-guanidinopropyl)amino]butyl}-(3-guanidinopropyl)amino]-propylamino}-N-ditetradecylcarbamoylmethylacetamide] here?
Answer: The value was “a shift is observed from the nstable phase B towards lower charge ratios”.
